# Test results taken from the supplement of paper PMC6045584.
# ± gives the standard deviation of the averaged measurements.
# Columns and labels:
# [1] = compound: T1, CC[C@@]1(O)C(=O)OCc2c1cc1n(c2=O)Cc2cc3ccccc3nc2-1 [CAMPTOTHECIN]; assay: surviving fraction relative to DMSO-only wells; higher = less growth inhibition; details: 1000 nM; exposure time: 5 days
# Method in brief: (§1)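 Viability values are CellTiter-Glo luminescence readings, given as surviving fraction against the median of DMSO-only wells. The readings were taken after 10 minutes at room temperature, following five days of continuous exposure to inhibitors at 0.5, 1, 5, 10, 50, 100, 500 and 1000 nM that began 24 hours after log-phase tumour cell lines were seeded at 250–500 cells per well in 384-well plates. Every line was screened three times and kept only if replicate Pearson r >0.7 and median Z' >0.3.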
# [2] = compound: T2, C[C@]1(O)C[C@@H](c2nc(-c3ccc4ccc(-c5ccccc5)nc4c3)c3c(N)nccn32)C1 [OSI-906]; assay: as above; details: exposure time: 5 days
# Method in brief: as §1
# [3] = compound: CC(=O)c1c(C)c2cnc(Nc3ccc(N4CCNCC4)cn3)nc2n(C2CCCC2)c1=O; assay: as above; details: exposure time: 5 days
# Method in brief: as §1
# [4] = compound: T3, O=C(O)C1(C(=O)O)CCC1.[NH2-].[NH2-].[Pt+2] [CARBOPLATIN]; assay: as above; details: exposure time: 5 days
# Method in brief: as §1
# [5] = compound: T4, CC(=O)O[C@H]1C(=O)[C@@]2(C)[C@H]([C@H](OC(=O)c3ccccc3)[C@]3(O)C[C@H](OC(=O)[C@H](O)[C@@H](NC(=O)c4ccccc4)c4ccccc4)C(C)=C1C3(C)C)[C@]1(OC(C)=O)CO[C@@H]1C[C@@H]2O [PACLITAXEL]; assay: as above; details: exposure time: 5 days
# Method in brief: as §1
# [6] = compound: CC(=O)NCC(=O)N1[C@@H]2CC[C@H]1c1ccc(Nc3ncc(C(F)(F)F)c(NC4CCC4)n3)cc12; assay: area under dose-response curve of surviving fraction (unscaled, Aref=0) (surviving fraction x log10(nM)); higher = more resistant; details: exposure time: 5 days; dose range 0.5-1000 nM
# Method in brief: (§2)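 Inhibitor was applied to tumour cell lines at eight concentrations (0.5 to 1000 nM) for five days in 384-well plates. Luminescence from CellTiter-Glo, scaled to DMSO-only wells, gave surviving fractions in three screens per line, and these were fitted by 3-parameter logistic regression with the drc R package. The area under the curve is an unscaled activity area. Aref was 0, and dose was on a log10 scale.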
# [7] = compound: Cc1ccc(-c2cc(C(F)(F)F)nn2-c2ccc(S(N)(=O)=O)cc2)cc1 [CELECOXIB]; assay: as above; details: exposure time: 5 days; dose range 0.5-1000 nM
# Method in brief: as §2
# [8] = compound: COCC[n+]1c2c(n(Cc3cnccn3)c1C)C(=O)c1ccccc1C2=O [YM155]; assay: as above; details: exposure time: 5 days; dose range 0.5-1000 nM
# Method in brief: as §2
# [9] = compound: T1, CAMPTOTHECIN; assay: as above; details: exposure time: 5 days; dose range 0.5-1000 nM
# Method in brief: as §2
# [10] = compound: T2, OSI-906; assay: as above; details: exposure time: 5 days; dose range 0.5-1000 nM
# Method in brief: as §2
# [11] = compound: T3, CARBOPLATIN; assay: as above; details: exposure time: 5 days; dose range 0.5-1000 nM
# Method in brief: as §2
# [12] = compound: T4, PACLITAXEL; assay: as above; details: exposure time: 5 days; dose range 0.5-1000 nM
# Method in brief: as §2
test system,measurement,setting,value
HCC78 LUNG,surviving fraction,[1],0.016 ± 0.0027
same,surviving fraction,[2]; 0.5 nM,0.712 ± 0.28
same,surviving fraction,[2]; 1 nM,0.809 ± 0.2
same,surviving fraction,[2]; 5 nM,0.954 ± 0.15
same,surviving fraction,[2]; 10 nM,0.94 ± 0.15
same,surviving fraction,[2]; 50 nM,0.801 ± 0.15
same,surviving fraction,[2]; 100 nM,0.831 ± 0.13
same,surviving fraction,[2]; 500 nM,0.764 ± 0.059
same,surviving fraction,[2]; 1000 nM,0.842 ± 0.12
same,surviving fraction,[3]; 0.5 nM,1.03 ± 0.14
same,surviving fraction,[3]; 1 nM,0.975 ± 0.063
same,surviving fraction,[3]; 5 nM,1.29 ± 0.046
same,surviving fraction,[3]; 10 nM,0.899 ± 0.2
same,surviving fraction,[3]; 50 nM,1.02 ± 0.25
same,surviving fraction,[3]; 100 nM,1.17 ± 0.14
same,surviving fraction,[3]; 500 nM,0.619 ± 0.11
same,surviving fraction,[3]; 1000 nM,0.579 ± 0.041
same,surviving fraction,[4]; 0.5 nM,1.04 ± 0.061
same,surviving fraction,[4]; 1 nM,0.884 ± 0.23
same,surviving fraction,[4]; 5 nM,1.2 ± 0.18
same,surviving fraction,[4]; 10 nM,0.951 ± 0.25
same,surviving fraction,[4]; 50 nM,1 ± 0.22
same,surviving fraction,[4]; 100 nM,1.12 ± 0.2
same,surviving fraction,[4]; 500 nM,0.973 ± 0.037
same,surviving fraction,[4]; 1000 nM,0.954 ± 0.18
same,surviving fraction,[5]; 0.5 nM,0.846 ± 0.3
same,surviving fraction,[5]; 1 nM,0.486 ± 0.046
same,surviving fraction,[5]; 5 nM,0.16 ± 0.036
same,surviving fraction,[5]; 10 nM,0.104 ± 0.021
same,surviving fraction,[5]; 50 nM,0.0717 ± 0.019
same,surviving fraction,[5]; 100 nM,0.077 ± 0.011
same,surviving fraction,[5]; 500 nM,0.0673 ± 0.013
same,surviving fraction,[5]; 1000 nM,0.1 ± 0.018
same,area under dose-response curve,[6],2.33
same,area under dose-response curve,[7],3.06
same,area under dose-response curve,[8],0.851
same,area under dose-response curve,[9],0.338
same,area under dose-response curve,[10],2.75
same,area under dose-response curve,[11],3.35
same,area under dose-response curve,[12],0.585
